The values below are quoted from earlier work in patent publication US11534458B2, “Phosphorus-sparing nutritional composition” (Albion Laboratories, Inc., priority 2013, dated 2022).

Where two headings read alike, the source gives them in different places.

For series [1] the following is noted: phytate-rich diet.
The test system of the next series is healthy young women. Conditions: for iron absorption increased by a factor of: phytase 10 mg (190 FTU), maize porridge meal.

Regarding `O=C1O[C@H]([C@@H](O)CO)C(O)=C1O` [ascorbic acid, reference compound], the iron absorption entry in series [1] is “markedly improved”. For the same molecule, in the series on healthy young women (ascorbic acid alone, iron from NaFeEDTA), the “effect on iron absorption” value is given as “little effect”.

On to `[Ca+2]` [calcium], for which the “decrease of phosphorus absorption” value is 5.4 mmol (for each 500 mg (12.5 mmol) supplemental calcium ingested) and 166 mg (for every 500 mg elemental calcium equivalent ingested).

B1: Recombinant A. niger phytase: recombinant Aspergillus niger phytase (microbial 3-phytase enzyme) of literature studies (protein, UniProt P34752 24-467, looked up)
Phytase A: ASRNQSSCDTVDQGYQCFSETSHLWGQYAPFFSLANESVISPEVPAGCRVTFAQVLSRHGARYPTDSKGKKYSALIEEIQQNATTFDGKYAFLKTYNYSLGADDLTPFGEQELVNSGIKFYQRYESLTRNIVPFIRSSGSSRVIASGKKFIEGFQSTKLKDPRAQPGQSSPKIDVVISEASSSNNTLDPGTCTVFEDSELADTVEANFTATFVPSIRQRLENDLSGVTLTDTEVTYLMDMCSFDTISTSTVDTKLSPFCDLFTHDEWINYDYLQSLKKYYGHGAGNPLGPTQGVGYANELIARLTHSPVHDDTSSNHTLDSSPATFPLNSTLYADFSHDNGIISILFALGLYNGTKPLSTTTVENITQTDGFSSAWTVPFASRLYVEMMQCQAEQEPLVRVLVNDRVVPLHGCPVDALGRCTRDSFVRGLSFARSGGDWAECFA
Take B1: the “iron absorption increased by a factor of” value is recorded as 1.71 in the series with healthy young women (iron given as FeSO4) and 1.23 in the series with healthy young women (iron given as NaFeEDTA).
